Results taken from patent US20150190360A1, “METHODS OF ADMINISTERING MONOMETHYL FUMARATE” (XenoPort, Inc., priority 2013, published 2015).

Legend:
[1] = system: imiquimod (IMQ) mouse model of psoriasis; assay type: in vivo, Balb/c mice
Protocol: In the imiquimod (IMQ) mouse model of psoriasis. Balb/c mice (10 males/group) received daily topical IMQ (5% cream) on shaved back and right ear for 5 days. Animals received oral active drug (90 mg-eq MMF/kg twice daily) or vehicle from Day −5 to Day 5. Erythema score was the primary outcome measure. […] The AUCmolar-MMF-GA:AUCmolar-MMF Ratio (%) in mice dosed with active drug at 90 mg/kg was 23.6%.

[2] = system: MOG35-55 mouse EAE model of MS

SMILES: CCN(CC)C(=O)COC(=O)/C=C/C(=O)OC [Active drug, (N,N-diethylcarbamoyl)methyl methyl (2E)but-2-ene-1,4-dioate]
- AUCmolar-MMF-GA:AUCmolar-MMF Ratio ([1]; male, Balb/c, mouse, in vivo, 90 mg/kg): 23.6%
- Erythema score versus control ([1]; oral 90 mg-eq MMF/kg twice daily from Day -5 to Day 5, Balb/c mice, topical IMQ 5% cream): significant reduction
- AUCmolar-MMF-GA:AUCmolar-MMF Ratio ([2]; female, C57BL/6, mouse, in vivo, 90 mg/kg): 23.6%
- EAE clinical score (Day 29 and overall AUC) compared to vehicle ([2]; oral 90 mg-eq MMF/kg twice daily on Days 3 to 29, C57BL/6 mice, 5 point scale): significant reduction
